Assay results as given in patent US20090215894A1, “INHIBITION OF PHOSPHATASE ACTIVITY OF SOLUBLE EPOXIDE HYDROLASE AMINO TERMINUS AND USES THEREOF” (REGENTS OF THE UNIVERSITY OF CALIFORNIA, priority 2005, published 2009).

What was measured:
[1] = system: cress sEH; assay: EH activity inhibition, cress sEH; format: biochemical, mouse-eared cress
Excerpt: (§1) Recombinant human sEH (HsEH) was produced in a baculovirus expression system (Beetham et al., Arch. Biochem. Biophys. 305, 197-201 (1993)) and purified by affinity chromatography (Wixtrom et al., Anal. Biochem. 169, 71-80 (1983)). […] No detectable esterase or glutathione transferase activities were observed. Recombinant mouse-eared cress sEH was produced in a baculovirus expression system and purified as described (Morisseau et al., Arch. Biochem. Biophys. 378, 321-332 (2000)). The nucleotide sequence of the C-terminal region (Mel^[…]) of human sEH was amplified by PCR using [NT] as forward primer and [NT] as reverse primer. The resulting band was gel purified and restricted with EcoR1 and Sal1, which were introduced by the primers, and the restricted fragment sub-cloned into the multiple cloning site of the pFastBac1 vector (Invitrogen). After verification of the obtained nucleotide sequence, the recombinant pFastBac1 plasmid was introduced in competent DH10bac cells leading to the formation of a recombinant plasmid containing the DNA insert. The isolated recombinant plasmid was used to produce recombinant baculovirus in Sf21 cells following procedures recommended by the manufacturer. The truncated HsEH was produced in high-5 Trichloplusia ni cell cultures following published procedures (Beetham et al., Arch. Biochem. Biophys. 305, 197-201 (1993)). Seventy-two hours post infection, the cells were collected by centrifugation (2,000 g×20 min). The cell pellet was then suspended in a sodium phosphate buffer (76 mM, pH 7.4) containing 1 mM of phenylmethylsulfonyl fluoride, EDTA and dithiothretol. The suspension was then homogenized by Polytron at 9,000 rpm for 1 min and centrifuged (10,000 g×20 min). The resulting supernatant was frozen at -80° C. until used for experiments. […] Protein concentrations were quantified with the Pierce BCA assay (Pierce; Rockford, Ill.) using Fraction V bovine serum albumin (BSA) as the calibrating standard. Nterm-Phos activity was measured in Bis-Tris HCl buffer (25 mM PH 7.0) containing 0.1 mg/mL of Fraction V BSA and 1 mM of MgCl2 (buffer A) at 30° C. […] APHP activity was measured as described using 7 as substrate (Newman et al., Proc. Natl. Acad. Sci. USA. 100, 1558-1563 (2003)). Compounds 34-37 were incubated separately with the enzyme for a given time, and then the reaction was stopped by the addition of 100 μL of methanol. The reaction products for compounds 34-37 were extracted with 500 μL of ethyl acetate. The quantification of the alcohol products was performed by LC/MS analysis of 2 μL of the organic phase. […] Biochem. 231, 188-200 (1995)). This latter substrate was also used to measure the activity of the cress sEH and the truncated human sEH.

[2] = molecular target: T1, Nterm-phos (Homo sapiens, UniProt P34913); assay: Sulfates tested as substrates for Nterm-phos (LC-MS of alcohol or diol); format: biochemical; settings: enzyme 400 nM, compound 100 μM, one hour
T1 construct: use of a truncated enzyme from crude extract versus purified full-length human sEH; made in house; host or cells: baculovirus expression system (insect cells)
T1 sequence (P34913 1-555): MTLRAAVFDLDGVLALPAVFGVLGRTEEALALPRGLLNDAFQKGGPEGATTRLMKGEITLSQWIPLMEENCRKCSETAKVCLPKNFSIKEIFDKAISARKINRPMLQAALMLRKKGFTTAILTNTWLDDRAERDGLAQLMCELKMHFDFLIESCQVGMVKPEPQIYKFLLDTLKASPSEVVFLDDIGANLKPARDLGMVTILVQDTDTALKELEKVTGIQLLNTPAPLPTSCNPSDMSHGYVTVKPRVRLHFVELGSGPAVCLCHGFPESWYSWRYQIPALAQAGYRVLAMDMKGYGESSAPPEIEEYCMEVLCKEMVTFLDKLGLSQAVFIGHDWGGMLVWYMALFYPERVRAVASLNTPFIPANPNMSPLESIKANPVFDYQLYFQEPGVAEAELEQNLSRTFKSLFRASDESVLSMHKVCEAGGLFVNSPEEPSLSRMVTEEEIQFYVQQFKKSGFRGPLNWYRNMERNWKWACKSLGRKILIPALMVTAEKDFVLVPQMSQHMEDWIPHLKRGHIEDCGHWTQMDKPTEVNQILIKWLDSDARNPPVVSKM
Procedure: To understand the mode of action of these new inhibitors, compounds 1 and 2 were tested as substrates for the Nterm-phos. Enzyme was incubated (400 nM) with the compounds (100 μM) for an hour and analyzed the mixture by LC-MS to detect any alcohol or diol formed (Newman et al., Proc. Natl. Acad. Sci. USA. 100, 1558-1563 (2003)). Formation of any alcohol or diol was not detected.

[3] = molecular target: T2, truncated human sEH (Homo sapiens, UniProt P34913); assay: EH activity inhibition, N-terminally truncated human sEH; format: biochemical
T2 construct: C-terminal region (Mel^237-Met^554) of human sEH was amplified by PCR; made in house; host or cells: baculovirus (pFastBac1) in high-5 Trichoplusia ni cells; 10,000 g supernatant used as crude extract
T2 sequence (P34913 237-555 limits assumed): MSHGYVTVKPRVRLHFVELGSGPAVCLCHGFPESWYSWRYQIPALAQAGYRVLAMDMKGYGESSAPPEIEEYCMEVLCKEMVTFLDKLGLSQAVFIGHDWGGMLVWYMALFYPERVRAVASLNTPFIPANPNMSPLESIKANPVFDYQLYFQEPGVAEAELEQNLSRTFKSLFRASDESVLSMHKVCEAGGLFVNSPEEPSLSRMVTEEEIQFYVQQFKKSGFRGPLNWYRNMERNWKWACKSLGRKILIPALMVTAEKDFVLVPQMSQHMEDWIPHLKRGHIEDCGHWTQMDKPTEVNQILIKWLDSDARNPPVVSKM
Excerpt: as §1

[4] = molecular target: T3, full length human sEH (Homo sapiens, UniProt P34913); assay: EH activity inhibition, full length human sEH; format: biochemical
T3 construct: use of a truncated enzyme from crude extract versus purified full-length human sEH; made in house; host or cells: baculovirus expression system (insect cells)
T3 sequence (P34913 1-555): T1 sequence (P34913 1-555)
Procedure: Nterm-Phos activity was measured in Bis-Tris HCl buffer (25 mM PH 7.0) containing 0.1 mg/mL of Fraction V BSA and 1 mM of MgCl2 (buffer A) at 30° C. […] APHP activity was measured as described using 7 as substrate (Newman et al., Proc. Natl. Acad. Sci. USA. 100, 1558-1563 (2003)). Compounds 34-37 were incubated separately with the enzyme for a given time, and then the reaction was stopped by the addition of 100 μL of methanol. The reaction products for compounds 34-37 were extracted with 500 μL of ethyl acetate. The quantification of the alcohol products was performed by LC/MS analysis of 2 μL of the organic phase. The Cterm-EH activity was measured as described previously in buffer A, using either racemic 4-nitrophenyl-trans-2,3-epoxy-3-phenylpropyl carbonate (Dietze et al., Anal. Biochem. 216, 176-187 (1994)) or racemic [^3H]-trans-1,3-diphenylpropene oxide as substrate (Borhan et al., Anal. Biochem. 231, 188-200 (1995)). This latter substrate was also used to measure the activity of the cress sEH and the truncated human sEH.

[5] = molecular target: T4, Human sEH Cterm-EH activity (Homo sapiens, UniProt P34913); assay: Cterm-EH dissociation constant with [3H]-trans-1,3-diphenylpropene oxide; format: biochemical
T4 construct: use of a truncated enzyme from crude extract versus purified full-length human sEH; made in house; host or cells: baculovirus expression system (insect cells)
T4 sequence (P34913 1-555): T1 sequence (P34913 1-555)
Procedure: For the Cterm-EH activity, dissociation constants were determined using racemic [^3H]-trans-1,3-diphenylpropene oxide as substrate. […] Velocity was measured as described (Borhan et al., Anal. Biochem. 231, 188-200 (1995)). […] Results are mean±standard deviation of three separate determination of KI.

[6] = molecular target: T4, Human sEH Cterm-EH activity; assay: Cterm-EH inhibition IC50 with 4-nitrophenyl-trans-2,3-epoxy-3-phenylpropyl carbonate; format: biochemical; settings: substrate 50 μM, 5 min preincubation, 30° C.; read-out: IC50

## CCCCCCCCC(CCCCCCCCC(=O)O)OS(=O)(=O)O (stereo not drawn) [Compound 1, 10-Sulfonooxy-octadecanoic acid]
[1]
  Inhibition at 100 μM (%): <2%
[2]
  Formation of any alcohol or diol: not detected
[3]
  inhibition at 100 µM: 89 ± 3%
[4]
  inhibition at 100 µM: 86 ± 2%
[5]
  KI at Cterm-EH relative to KI at Nterm-Phos: roughly 100 fold
[5]; non-competitive inhibition, n=3
  Ki: 31 ± 2 µM
[6]
  IC50: 28 ± 2 µM

## CCCCCCCCC(OS(=O)(=O)O)C(O)CCCCCCCC(=O)O (stereo not drawn) [Compound 2, 9/10-Sulfonooxy-hydroxy-octadecanoic acid]
[1]
  Inhibition at 100 μM (%): <2%
[2]
  Formation of any alcohol or diol: not detected
[3]
  inhibition at 100 µM: 58 ± 2%
[4]
  inhibition at 100 µM: 54 ± 3%
[6]
  IC50: 90 ± 5 µM

## CCCCCCCCCC(CCCCCCCC)OS(=O)(=O)O (stereo not drawn) [Compound 3, 9-Octadecanyl-sulfate]
[1]
  Inhibition at 100 μM (%): <2%
[3]
  inhibition at 100 µM: 67 ± 3%
[4]
  inhibition at 100 µM: 72 ± 2%
[6]
  IC50: 21 ± 5 µM

## CCCCCCC(C/C=C\CCCCCCCC(=O)O)OS(=O)(=O)O (stereo not drawn) [Compound 4, 12-Sulfonoxy-cis-9-octadecenoic acid]
[1]
  Inhibition at 100 μM (%): <2%
[3]
  inhibition at 100 µM: 16 ± 2%
[4]
  inhibition at 100 µM: 26 ± 3%
[6]
  IC50: > 100 µM

## CCCCCCC(C/C=C/CCCCCCCC(=O)O)OS(=O)(=O)O (stereo not drawn) [Compound 5, 12-Sulfonoxy-trans-9-octadecenoic acid]
[1]
  Inhibition at 100 μM (%): <2%
[3]
  inhibition at 100 µM: 44 ± 4%
[4]
  inhibition at 100 µM: 68 ± 2%
[6]
  IC50: 16 ± 3 µM
